According to PubChem BioAssay (NCI):
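Results reflect a 48-hour exposure of cells in 96-well plates to compound at five concentrations. GI50: concentration for 50% inhibition of growth. TGI is the concentration that stops growth completely.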

Assays:
Experiment in all cases: DTP human tumour cell line panel, 48 h
[1] = system: HCT-116 colon
[2] = system: NCI/ADR-RES ovarian
[3] = system: MDA-MB-435
[4] = system: SR leukemia
[5] = system: SK-MEL-5 melanoma
[6] = system: CAKI-1 renal
[7] = system: SW-620 colon
[8] = system: 786-0 renal
[9] = system: OVCAR-5 ovarian
[10] = system: SNB-19 CNS
[11] = system: MALME-3M melanoma
[12] = system: SK-MEL-2 melanoma
[13] = system: DU-145 prostate
[14] = system: CCRF-CEM leukemia
[15] = system: MCF7 breast
[16] = system: HL-60(TB) leukemia
[17] = system: NCI-H460 lung
[18] = system: HOP-62 NSCLC
[19] = system: SK-MEL-28 melanoma
[20] = system: M14 melanoma
[21] = system: UACC-257 melanoma
[22] = system: K-562 leukemia
[23] = system: OVCAR-4 ovarian
[24] = system: COLO 205 colon
[25] = system: HCC-2998 colon
[26] = system: UACC-62 melanoma
[27] = system: ACHN renal
[28] = system: HOP-92 NSCLC
[29] = system: HS 578T breast

`COC(=O)c1oc2c(C(=O)/C=C/c3ccc(OC)cc3)c(OCCN3CCOCC3)ccc2c1C` was tested. Which GI50 [1] did it give?
Its GI50 is 1600 nM.

What about the TGI [1] of the same compound?
The TGI was 4.55 µM.

What about the GI50 [2] of the same compound?
Its GI50 is 2480 nM.

What about the TGI [2] of the same compound?
Its TGI is greater than 24 µM.

And the GI50 [3]?
The GI50 was 2370 nM.

And the TGI [3]?
The TGI was 7.34 µM.

And the GI50 [4]?
Its GI50 is 287 nM.

What about the TGI [4] of the same compound?
Its TGI is 1290 nM.

What about the GI50 [5] of the same compound?
Its GI50 is 1690 nM.

And the TGI [5]?
The TGI was 3.17 µM.

And the GI50 [6]?
Its GI50 is 1740 nM.

What about the TGI [6] of the same compound?
The TGI was 4.94 µM.

What about the GI50 [7] of the same compound?
The GI50 was 1880 nM.

And the TGI [7]?
Its TGI is 4.43 µM.

And the GI50 [8]?
The GI50 was 1770 nM.

And the TGI [8]?
The TGI was 4.1 µM.

What about the GI50 [9] of the same compound?
The GI50 was 2380 nM.

What about the TGI [9] of the same compound?
Its TGI is 6.68 µM.

And the GI50 [10]?
The GI50 was 1650 nM.

What about the TGI [10] of the same compound?
Its TGI is 4.15 µM.

And the GI50 [11]?
The GI50 was 2470 nM.

What about the TGI [11] of the same compound?
Its TGI is 6.54 µM.

What about the GI50 [12] of the same compound?
The GI50 was 1320 nM.

And the TGI [12]?
Its TGI is 3.15 µM.

What about the GI50 [13] of the same compound?
The GI50 was 1750 nM.

What about the TGI [13] of the same compound?
The TGI was 4.24 µM.

What about the GI50 [14] of the same compound?
The GI50 was 395 nM.

What about the TGI [14] of the same compound?
The TGI was 2530 nM.

What about the GI50 [15] of the same compound?
The GI50 was 970 nM.

What about the TGI [15] of the same compound?
Its TGI is 7.33 µM.

And the GI50 [16]?
The GI50 was 1440 nM.

And the TGI [16]?
Its TGI is 4.29 µM.

And the GI50 [17]?
Its GI50 is 1910 nM.

What about the TGI [17] of the same compound?
Its TGI is 4.75 µM.

And the GI50 [18]?
Its GI50 is 2440 nM.

What about the TGI [18] of the same compound?
Its TGI is 6.88 µM.

What about the GI50 [19] of the same compound?
The GI50 was 2330 nM.

What about the TGI [19] of the same compound?
The TGI was 5.19 µM.

And the GI50 [20]?
Its GI50 is 3.11 µM.

And the TGI [20]?
The TGI was 12.1 µM.

And the GI50 [21]?
Its GI50 is 1990 nM.

What about the TGI [21] of the same compound?
The TGI was 4.25 µM.

What about the GI50 [22] of the same compound?
The GI50 was 1440 nM.

And the TGI [22]?
The TGI was 4.82 µM.

And the GI50 [23]?
Its GI50 is 2480 nM.

And the TGI [23]?
The TGI was greater than 44.2 µM.

And the GI50 [24]?
The GI50 was 1580 nM.

And the TGI [24]?
The TGI was 3.12 µM.

And the GI50 [25]?
The GI50 was 1640 nM.

And the TGI [25]?
The TGI was 3.17 µM.

What about the GI50 [26] of the same compound?
The GI50 was 1550 nM.

And the TGI [26]?
Its TGI is 3.19 µM.

What about the GI50 [27] of the same compound?
The GI50 was 1730 nM.

What about the TGI [27] of the same compound?
The TGI was 3.62 µM.

What about the GI50 [28] of the same compound?
Its GI50 is 1540 nM.

And the TGI [28]?
Its TGI is 5.48 µM.

What about the GI50 [29] of the same compound?
The GI50 was 1740 nM.

And the TGI [29]?
The TGI was 5.84 µM.
